Results from ChEMBL document CHEMBL4261568, “Pyrimidine Nucleotides Containing a (S)-Methanocarba Ring as P2Y6 Receptor Agonists” (Medchemcomm, 2017).
Each block holds one compound with its values, some of them ahead of it. Active and inactive are the calls of the source. The calls are words filed in the database; no cut-off is given here.

How the values were obtained:
P2Y purinoceptor 6 = P2Y purinoceptor 6 (Homo sapiens, UniProt Q15077); assay: Agonist activity at human P2Y6 receptor expressed in human 1321N1 cells assessed as induction of calcium mobilization by FLIPR method; type: functional, cell-based
Chain of P2Y purinoceptor 6 (Q15077 whole entry): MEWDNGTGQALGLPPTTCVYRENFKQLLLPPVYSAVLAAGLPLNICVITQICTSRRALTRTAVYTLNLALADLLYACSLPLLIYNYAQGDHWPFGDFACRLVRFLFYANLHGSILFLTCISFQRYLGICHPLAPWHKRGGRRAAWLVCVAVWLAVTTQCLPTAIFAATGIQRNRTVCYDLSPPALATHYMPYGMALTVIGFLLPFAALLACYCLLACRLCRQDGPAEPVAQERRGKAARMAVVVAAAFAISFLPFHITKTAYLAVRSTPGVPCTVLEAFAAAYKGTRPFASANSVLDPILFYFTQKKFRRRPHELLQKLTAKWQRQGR

[1] = target: T1, P2Y purinoceptor 14 (Homo sapiens) (UniProt Q15391); assay: Agonist activity at human P2Y14 receptor expressed in human 1321N1 cells assessed as induction of calcium mobilization at 10 uM measured over 2 mins by Fluo-4 dye-based FLIPR method relative to control; type: functional, cell-based
T1 sequence (whole entry): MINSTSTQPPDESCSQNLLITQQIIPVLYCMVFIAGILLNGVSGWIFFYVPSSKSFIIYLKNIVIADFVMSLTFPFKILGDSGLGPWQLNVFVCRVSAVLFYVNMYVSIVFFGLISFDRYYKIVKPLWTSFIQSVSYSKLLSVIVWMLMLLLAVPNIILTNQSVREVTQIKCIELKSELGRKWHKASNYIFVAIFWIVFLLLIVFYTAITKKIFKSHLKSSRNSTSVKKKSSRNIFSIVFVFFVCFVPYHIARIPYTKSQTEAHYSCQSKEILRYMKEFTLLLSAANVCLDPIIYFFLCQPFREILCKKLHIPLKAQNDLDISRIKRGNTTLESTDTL

[2] = target: P2Y purinoceptor 1 (Homo sapiens) (UniProt P47900); assay: Antagonist activity at human P2Y1 receptor expressed in human 1321N1 cells assessed as inhibition of calcium mobilization at 10 uM measured over 2 mins by Fluo-4 dye-based FLIPR method relative to control; type: functional, cell-based
Chain of P2Y purinoceptor 1 (Homo sapiens) (P47900 whole entry): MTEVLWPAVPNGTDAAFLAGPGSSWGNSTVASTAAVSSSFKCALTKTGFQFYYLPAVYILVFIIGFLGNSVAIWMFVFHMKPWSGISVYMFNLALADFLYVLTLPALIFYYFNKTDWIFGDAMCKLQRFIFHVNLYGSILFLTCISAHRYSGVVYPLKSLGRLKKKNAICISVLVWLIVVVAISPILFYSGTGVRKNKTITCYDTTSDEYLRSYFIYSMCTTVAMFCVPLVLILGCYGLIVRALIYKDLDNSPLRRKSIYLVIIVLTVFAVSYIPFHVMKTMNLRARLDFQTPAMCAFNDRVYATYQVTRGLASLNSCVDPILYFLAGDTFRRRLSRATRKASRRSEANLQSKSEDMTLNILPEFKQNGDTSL

[3] = target: T2, P2Y purinoceptor 11 (Homo sapiens) (UniProt Q96G91); assay: Antagonist activity at human P2Y11 receptor expressed in human 1321N1 cells assessed as inhibition of calcium mobilization at 10 uM measured over 2 mins by Fluo-4 dye-based FLIPR method relative to control; type: functional, cell-based
T2 sequence (whole entry): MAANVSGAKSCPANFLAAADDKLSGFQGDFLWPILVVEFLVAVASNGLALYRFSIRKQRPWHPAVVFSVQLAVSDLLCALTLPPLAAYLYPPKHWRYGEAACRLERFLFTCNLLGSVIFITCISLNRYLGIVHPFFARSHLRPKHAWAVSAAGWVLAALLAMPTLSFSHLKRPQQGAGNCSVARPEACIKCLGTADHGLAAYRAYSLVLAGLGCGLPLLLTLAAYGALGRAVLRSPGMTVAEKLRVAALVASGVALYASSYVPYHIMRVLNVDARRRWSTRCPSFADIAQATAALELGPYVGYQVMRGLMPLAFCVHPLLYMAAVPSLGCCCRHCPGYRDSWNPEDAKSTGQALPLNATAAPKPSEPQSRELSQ

[4] = target: P2Y purinoceptor 1 (Homo sapiens) (UniProt P47900); assay: Agonist activity at human P2Y1 receptor expressed in human 1321N1 cells assessed as induction of calcium mobilization at 10 uM measured over 2 mins by Fluo-4 dye-based FLIPR method relative to control; type: functional, cell-based
[5] = target: P2Y purinoceptor 2 (Homo sapiens) (UniProt P41231); assay: Antagonist activity at human P2Y2 receptor expressed in human 1321N1 cells assessed as inhibition of calcium mobilization at 10 uM measured over 2 mins by Fluo-4 dye-based FLIPR method relative to control; type: functional, cell-based
Chain of P2Y purinoceptor 2 (Homo sapiens) (P41231 whole entry): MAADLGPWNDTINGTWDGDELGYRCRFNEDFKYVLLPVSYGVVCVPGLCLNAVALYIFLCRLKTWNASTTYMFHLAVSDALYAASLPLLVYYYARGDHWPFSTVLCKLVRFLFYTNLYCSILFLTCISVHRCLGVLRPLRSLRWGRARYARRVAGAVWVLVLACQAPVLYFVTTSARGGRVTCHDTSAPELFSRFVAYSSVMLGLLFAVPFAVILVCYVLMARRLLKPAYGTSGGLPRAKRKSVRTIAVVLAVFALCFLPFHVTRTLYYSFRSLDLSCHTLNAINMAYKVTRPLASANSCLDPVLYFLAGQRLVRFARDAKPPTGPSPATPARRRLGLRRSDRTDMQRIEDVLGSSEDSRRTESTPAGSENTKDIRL

[6] = target: P2Y purinoceptor 4 (Homo sapiens) (UniProt P51582); assay: Agonist activity at human P2Y4 receptor expressed in human 1321N1 cells assessed as induction of calcium mobilization at 10 uM measured over 2 mins by Fluo-4 dye-based FLIPR method relative to control; type: functional, cell-based
Chain of P2Y purinoceptor 4 (Homo sapiens) (P51582 whole entry): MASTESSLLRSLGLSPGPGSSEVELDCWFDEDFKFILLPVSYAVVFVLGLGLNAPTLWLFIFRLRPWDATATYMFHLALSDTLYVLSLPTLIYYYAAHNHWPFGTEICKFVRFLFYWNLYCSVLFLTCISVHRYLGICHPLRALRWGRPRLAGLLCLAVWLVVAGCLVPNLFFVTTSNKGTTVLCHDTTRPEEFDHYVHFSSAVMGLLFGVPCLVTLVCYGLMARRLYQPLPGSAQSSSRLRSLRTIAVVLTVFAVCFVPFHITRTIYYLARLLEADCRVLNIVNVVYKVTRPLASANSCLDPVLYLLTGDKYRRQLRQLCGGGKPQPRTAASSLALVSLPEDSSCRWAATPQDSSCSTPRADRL

[7] = target: P2Y purinoceptor 2 (Homo sapiens) (UniProt P41231); assay: Agonist activity at human P2Y2 receptor expressed in human 1321N1 cells assessed as induction of calcium mobilization at 10 uM measured over 2 mins by Fluo-4 dye-based FLIPR method relative to control; type: functional, cell-based
[8] = target: P2Y purinoceptor 4 (Homo sapiens) (UniProt P51582); assay: Antagonist activity at human P2Y4 receptor expressed in human 1321N1 cells assessed as inhibition of calcium mobilization at 10 uM measured over 2 mins by Fluo-4 dye-based FLIPR method relative to control; type: functional, cell-based
[9] = Half life in human 1321N1 cell membranes; type: ADME, cell-based

EC50 (P2Y purinoceptor 6): 6900 nM
Structure (SMILES): CO/N=c1/ccn([C@]23C[C@H]2[C@H](COP(=O)(O)OP(=O)(O)OP(=O)(O)OC[C@@H]2[C@@H](O)[C@@H](O)[C@@]4(n5ccc(=O)[nH]c5=O)C[C@@H]24)[C@@H](O)[C@H]3O)c(=O)[nH]1

EC50 (P2Y purinoceptor 6): 5490 nM
Structure (SMILES): CO/N=c1/ccn([C@]23C[C@H]2[C@H](COP(=O)(O)OP(=O)(O)OP(=O)(O)OC[C@@H]2[C@@H](O)[C@@H](O)[C@@]4(n5cc/c(=N/OC)[nH]c5=O)C[C@@H]24)[C@@H](O)[C@H]3O)c(=O)[nH]1

Activity [1]: inactive
EC50 (P2Y purinoceptor 6): 438 nM
Structure (SMILES): O=c1ccn([C@]23C[C@H]2[C@H](COP(=O)(O)OP(=O)(O)O)[C@@H](O)[C@H]3O)c(=O)[nH]1

EC50 (P2Y purinoceptor 6): 705 nM
Structure (SMILES): CO/N=c1/ccn([C@]23C[C@H]2[C@H](COP(=O)(O)OP(=O)(O)OP(=O)(O)OC[C@@]24C[C@@H]2[C@@H](n2ccc(=O)[nH]c2=O)[C@H](O)[C@@H]4O)[C@@H](O)[C@H]3O)c(=O)[nH]1

EC50 (P2Y purinoceptor 6): 2360 nM
Structure (SMILES): O=c1[nH]/c(=N\OCc2ccccc2)ccn1[C@@H]1O[C@H](COP(=O)(O)CP(=O)(O)O)[C@@H](O)[C@H]1O

EC50 (P2Y purinoceptor 6): 132 nM
Structure (SMILES): O=c1ccn([C@@H]2O[C@H](COP(=O)(O)OP(=O)(O)O)[C@@H](O)[C@H]2O)c(=O)[nH]1

EC50 (P2Y purinoceptor 6): 6290 nM
Structure (SMILES): CO/N=c1/ccn([C@]23C[C@H]2[C@H](COP(=O)(O)CP(=O)(O)O)[C@@H](O)[C@H]3O)c(=O)[nH]1

EC50 (P2Y purinoceptor 6): 4960 nM
Structure (SMILES): O=c1[nH]/c(=N\OCc2ccccc2)ccn1[C@]12C[C@H]1[C@H](COP(=O)(O)CP(=O)(O)O)[C@@H](O)[C@H]2O

Imax [2]: 17%
Imax [3]: -3.9%
%max [4]: -0.5%
EC50 (P2Y purinoceptor 6): 493 nM
Imax [5]: 16.8%
%max [6]: 2.2%
%max [7]: 8.9%
Imax [8]: 10%
Structure (SMILES): CO/N=c1/ccn([C@]23C[C@H]2[C@H](COP(=O)(O)OP(=O)(O)O)[C@@H](O)[C@H]3O)c(=O)[nH]1

EC50 (P2Y purinoceptor 6): 1200 nM
half-life [9]: 23 min
Structure (SMILES): CCN(CC)CC.CCN(CC)CC.CO/N=c1/ccn([C@@H]2O[C@H](COP(=O)(O)OP(=O)(O)OP(=O)(O)OC[C@H]3O[C@@H](n4ccc(=O)[nH]c4=O)[C@H](O)[C@@H]3O)[C@@H](O)[C@H]2O)c(=O)[nH]1

EC50 (P2Y purinoceptor 6): 49.1 nM
Structure (SMILES): O=c1[nH]c(=O)n([C@@H]2O[C@H](COP(=O)(O)OP(=O)(O)O)[C@@H](O)[C@H]2O)cc1I

half-life [9]: 55 min
Structure (SMILES): CO/N=c1/ccn([C@@H]2O[C@H](COP(=O)(O)OP(=O)(O)O)[C@@H](O)[C@H]2O)c(=O)[nH]1

EC50 (P2Y purinoceptor 6): 47100 nM
Structure (SMILES): O=c1ccn([C@]23C[C@H]2[C@H](COP(=O)(O)CP(=O)(O)O)[C@@H](O)[C@H]3O)c(=O)[nH]1

Imax [2]: 56.8%
Imax [3]: 0.1%
%max [4]: -0.6%
EC50 (P2Y purinoceptor 6): 4120 nM
Imax [5]: 40.3%
%max [6]: 10.2%
%max [7]: 16%
Imax [8]: 25%
Structure (SMILES): CO/N=c1/ccn([C@]23C[C@H]2[C@H](COP(=O)(O)OP(=O)(O)OP(=O)(O)OC[C@H]2O[C@@H](n4ccc(=O)[nH]c4=O)[C@H](O)[C@@H]2O)[C@@H](O)[C@H]3O)c(=O)[nH]1

EC50 (P2Y purinoceptor 6): 793 nM
Structure (SMILES): O=c1[nH]/c(=N\OCc2ccccc2)ccn1[C@]12C[C@H]1[C@H](COP(=O)(O)OP(=O)(O)O)[C@@H](O)[C@H]2O

EC50 (P2Y purinoceptor 6): 440 nM
Structure (SMILES): O=c1[nH]c(=O)n([C@]23C[C@H]2[C@H](COP(=O)(O)OP(=O)(O)O)[C@@H](O)[C@H]3O)cc1I

EC50 (P2Y purinoceptor 6): 420 nM
Structure (SMILES): CO/N=c1/ccn([C@@H]2O[C@H](COP(=O)(O)CP(=O)(O)O)[C@@H](O)[C@H]2O)c(=O)[nH]1
